Consider two molecules from article PMC10818623, “Assessing Trans-Inhibition of OATP1B1 and OATP1B3 by Calcineurin and/or PPIase Inhibitors and Global Identification of OATP1B1/3-Associated Proteins” (Pharmaceutics, 2023).

In data set [1] the target is T1, OATP1B1 (Homo sapiens, UniProt Q9Y6L6).
T1 sequence (Q9Y6L6 1-691): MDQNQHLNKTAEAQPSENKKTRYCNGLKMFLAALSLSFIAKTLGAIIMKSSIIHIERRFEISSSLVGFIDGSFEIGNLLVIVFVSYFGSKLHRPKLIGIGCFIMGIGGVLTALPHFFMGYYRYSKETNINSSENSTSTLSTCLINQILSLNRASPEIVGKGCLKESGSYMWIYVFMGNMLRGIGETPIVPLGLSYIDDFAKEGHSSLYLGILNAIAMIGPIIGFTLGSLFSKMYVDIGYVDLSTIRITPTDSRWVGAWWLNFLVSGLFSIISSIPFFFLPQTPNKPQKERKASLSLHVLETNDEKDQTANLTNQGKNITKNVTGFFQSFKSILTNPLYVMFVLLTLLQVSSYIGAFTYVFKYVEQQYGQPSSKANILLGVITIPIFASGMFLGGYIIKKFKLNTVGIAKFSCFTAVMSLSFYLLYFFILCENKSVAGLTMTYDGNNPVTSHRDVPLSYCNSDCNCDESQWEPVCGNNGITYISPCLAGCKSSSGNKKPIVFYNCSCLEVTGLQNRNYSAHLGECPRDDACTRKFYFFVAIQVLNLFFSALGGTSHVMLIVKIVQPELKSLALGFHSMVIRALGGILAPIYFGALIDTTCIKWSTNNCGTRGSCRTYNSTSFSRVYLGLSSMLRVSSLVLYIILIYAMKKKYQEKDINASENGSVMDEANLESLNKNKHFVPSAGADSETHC
Kind of data set: Preincubation-induced trans-inhibition of OATP1B1-mediated [3H]-E1S transport in HEK293-FLAG-OATP1B1 cells. Type of data set: cell-based. Also noted: expressed in transfected cells. To be noted: E1S 1 µM, 2 min. The procedure:
(§1) HEK293-FLAG-OATP1B1 and HEK293-FLAG-OATP1B3 cells were seeded at a density of 1.5 × 10^5 cells per well of 24-well plate coated with poly-L-lysine and allowed to grow for 48 h to confluence before uptake studies were performed as published previously; the preincubation effects on OATP1B1- and OATP1B3-mediated transport were also determined as previously published. […] After washing three times with HBSS buffer (pH 7.4), substrate accumulation was determined in the absence of inhibitors. [^3H]-E217βG (1 µM, 2 min) and [^3H]-E1S (1 µM, 2 min) were used as probe substrates for OATP1B1; [^3H]-CCK-8 (1 µM, 3 min) was used as the probe substrate for OATP1B3, similar to previous publications. [^3H]-pitavastatin accumulation (1 µM, 30 s) in human SCH was conducted on day 2 of culture as has been published previously. Substrate accumulation was determined by scintillation counting (LS6500 scintillation counter, Beckman Coulter, Brea, CA) and normalized to a protein concentration determined via BCA assay (Pierce Chemical, Rockford, IL, USA). Transport assays on a blank plate without cells were conducted to correct for the nonspecific binding to the assay plate.

Data set [2] deals with T1, OATP1B1. Kind of data set: Preincubation-induced trans-inhibition of OATP1B1-mediated [3H]-E217βG transport in HEK293-FLAG-OATP1B1 cells. It counts as cell-based. Details: expressed in transfected cells. The conditions noted are these: for IC50: washing, [3H]-E217βG 1 µM 2 min without inhibitor, HEK293-FLAG-OATP1B1, read-out: Preincubation IC50 against OATP1B1. The source says: The IC50 values were estimated by nonlinear regression using the three-parameter model as below with GraphPad Prism v.9.0 (GraphPad Software, La Jolla, CA, USA). E = Bottom + (Top − Bottom)/(1 + (C/IC50))

Data set [3] has as its target T1, OATP1B1. The conditions noted are these: E1S as substrate; cited from earlier work.
Data set [4] deals with T2, OATP1B3 (Homo sapiens, UniProt Q9NPD5).
T2 construct: expressed in transfected cells
T2 sequence (Q9NPD5 1-702): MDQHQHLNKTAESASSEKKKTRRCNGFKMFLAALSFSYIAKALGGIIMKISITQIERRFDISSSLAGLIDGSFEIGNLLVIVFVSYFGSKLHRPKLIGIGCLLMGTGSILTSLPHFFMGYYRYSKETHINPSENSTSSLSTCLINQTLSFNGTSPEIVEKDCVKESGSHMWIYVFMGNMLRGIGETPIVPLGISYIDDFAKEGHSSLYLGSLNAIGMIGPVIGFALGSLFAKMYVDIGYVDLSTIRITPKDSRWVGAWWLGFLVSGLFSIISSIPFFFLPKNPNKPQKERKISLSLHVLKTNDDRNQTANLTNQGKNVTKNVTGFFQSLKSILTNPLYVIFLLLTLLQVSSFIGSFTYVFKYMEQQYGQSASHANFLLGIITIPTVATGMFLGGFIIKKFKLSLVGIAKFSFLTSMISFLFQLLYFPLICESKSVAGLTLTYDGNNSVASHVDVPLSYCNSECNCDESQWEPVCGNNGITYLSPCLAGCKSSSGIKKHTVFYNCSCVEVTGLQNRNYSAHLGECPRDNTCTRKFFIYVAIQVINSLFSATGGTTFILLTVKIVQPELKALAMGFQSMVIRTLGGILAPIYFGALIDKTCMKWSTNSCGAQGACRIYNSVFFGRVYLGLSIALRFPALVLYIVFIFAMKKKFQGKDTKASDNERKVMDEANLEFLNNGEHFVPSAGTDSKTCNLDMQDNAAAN
Briefly: Preincubation-induced trans-inhibition of OATP1B3-mediated [3H]-CCK-8 transport in HEK293-FLAG-OATP1B3 cells. Type of data set: cell-based. The conditions noted are these: preincubation 10–60 min with tacrolimus 1–10 µM; greatest reduction. The procedure: as §1

For data set [5], the target named is T2, OATP1B3. Also noted: method as in PMID 22240838. The conditions noted are these: cited from earlier work.
For data set [6] the following is noted: cited from earlier work.
The test system of another data set is human SCH. Kind of data set: [3H]-pitavastatin accumulation in human sandwich-cultured hepatocytes after inhibitor preincubation and washing. Type of data set: cell-based. To be noted: 10 µM. The procedure: Fresh primary human hepatocytes were purchased from Lonza Walkersville, Inc. (Walkersville, MD, USA). Donor information is provided in Supplementary Table S1. Cell viability was 96% after centrifugation. Culture of human SCH was performed as described previously. In brief, on day 1, cells were plated at 3 × 10^5 cells per well in 24-well Biocoat™ plates (Thermo Fisher Scientific, Waltham, MA, USA). When cells had attached to the plate after 6 h of seeding, cells were overlaid with Matrigel™ (Thermo Fisher Scientific, Waltham, MA, USA) (0.25 mg/mL) in feeding medium: phenol red-free DMEM supplemented with 2 mM L-glutamine, 1% (v/v) MEM NEAA, 100 units/mL of penicillin G sodium, 100 µg/mL of streptomycin sulfate, 0.1 μM dexamethasone, and 1% (v/v) ITS^+ premix. Uptake experiments were conducted on day two of culture, the next day after seeding.

“And” between values parts separate entries of the source, which are not always exact repeats. Identical values can stand only once. Like-named read-outs stand apart in the source and are kept apart here.

`C=CC[C@@H]1/C=C(\C)C[C@H](C)C[C@H](OC)[C@H]2O[C@@](O)(C(=O)C(=O)N3CCCC[C@H]3C(=O)O[C@H](/C(C)=C/[C@@H]3CC[C@@H](O)[C@H](OC)C3)[C@H](C)[C@@H](O)CC1=O)[C@H](C)C[C@@H]2OC` [tacrolimus]: the “OATP1B1-mediated transport of [3H]-E1S, fold that of the control” value is 0.85 ± 0.02 fold that of the control at OATP1B1 [1] (1 µM preincubation, 10 min); 0.88 ± 0.04 fold that of the control at OATP1B1 [1] (1 µM preincubation, 30 min); 0.59 ± 0.04 fold that of the control at OATP1B1 [1] (10 µM preincubation, 10 min); 0.59 ± 0.05 fold that of the control on OATP1B1 [1] (10 µM preincubation, 30 min); 0.55 ± 0.04 fold that of the control on OATP1B1 [1] (10 µM preincubation, 60 min). In addition, the “OATP1B1-mediated transport, reduced up to, fold compared to the control” value at OATP1B1 [2] (preincubation 10–60 min with tacrolimus 1–10 µM, greatest reduction) was 0.18 ± 0.03 fold compared to the control. Besides, the “Preincubation-induced trans-inhibition against OATP1B1” value on OATP1B1 [3] is on record as “no preincubation-induced trans-inhibition”. Besides, the “OATP1B3-mediated transport, reduced up to, fold compared to the control” value on OATP1B3 [4] is 0.20 ± 0.02 fold compared to the control. In addition, the “Preincubation-induced trans-inhibition against OATP1B3” value at OATP1B3 [5] is given as “no preincubation-induced trans-inhibition”. Moreover, the DDI against atorvastatin entry in data set [6] is “does not cause DDIs”. Besides, the DDI against simvastatin result in data set [6] was “does not cause DDIs”. In data set [6] (long-term tacrolimus treatment, renal transplant recipients), the “Increase of AUC of cerivastatin” value was 1.5 fold. Besides, the “Increase of AUC of pravastatin” value in data set [6] (long-term tacrolimus treatment, two pediatric and adolescent cardiac transplant recipients) is ~ 10 fold. The “[3H]-pitavastatin accumulation after washout (long-lasting inhibition), fold that of the control” value in the data set on human SCH is listed as 0.59 ± 0.09 fold that of the control. In addition, in the data set on human SCH (human SCH, 1 h preincubation, washing, pitavastatin 1 µM, 0.5 min, N = 1 donor), the “[3H]-pitavastatin accumulation, fold that of the control” value is 0.58 ± 0.07 fold that of the control.

One may read the IC50 as the concentration needed to halve the response being measured. As for `C/C=C/C[C@@H](C)[C@@H](O)[C@H]1C(=O)N[C@@H](CC)C(=O)N(C)[C@H](SCCN(C)C)C(=O)N(C)[C@@H](CC(C)(C)O)C(=O)N[C@@H](C(C)C)C(=O)N(C)[C@@H](CC(C)C)C(=O)N[C@@H](C)C(=O)N[C@H](C)C(=O)N(C)[C@@H](CC(C)C)C(=O)N(C)[C@@H](CC(C)C)C(=O)N(C)[C@@H](C(C)C)C(=O)N1C` [SCY-635], the IC50 was ~9.4 µM and 9.4 µM at OATP1B1 [2] (10 min preincubation (0.001–10 µM)); ~3.1 µM and 3.1 µM on OATP1B1 [2] (30 min preincubation (0.001–10 µM)); 2.2 ± 1.4 µM at OATP1B1 [2] (60 min preincubation (0.001–10 µM)). Further, the “IC50 against OATP1B1, fold greater than that of CsA” value against OATP1B1 [2] (60 min preincubation, SCY-635 IC50 versus CsA IC50) is given as ~ 18 fold. The “Preincubation IC50 at 30 min, fold higher than IC50 at 60 min preincubation” value at OATP1B1 [2] (OATP1B1, 30 min versus 60 min preincubation) was 1.4 fold. Further, the “Effect of preincubation on OATP1B1-mediated transport” value at OATP1B1 [2] (SCY-635, all preincubation times, only at 5 and 10 µM, p < 0.00001) is given as “significantly reduced”.
